What was measured:
MV-4-11 cells = test: Cell growth inhibition assay (CellTiter-Glo), MV-4-11; assay type: cell-based; details: Homo sapiens, MV4-11
Method in brief: (§1)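 Leukemia lines grown in their own media were exposed for 4 days at 37° C. to 3-fold serial dilutions from 10 μM (0.1% DMSO). Viability by CellTiter-Glo ATP luminescence, corrected for background and day-0 plate; IC50 and TGI from four-parameter fit against vehicle (100%) and medium (−100%).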

THP-1 cells = test: Cell growth inhibition assay (CellTiter-Glo), THP-1; assay type: cell-based; details: Homo sapiens
Method in brief: as §1

K-562 cells = test: Cell growth inhibition assay (CellTiter-Glo), K-562; assay type: cell-based, human; details: for GI50: Homo sapiens, K562
Method in brief: as §1

Cc1nn(-c2ccnn2C)c2c1C(c1ccc(Cl)cc1)N(c1cc(C)c3nnc(C)n3n1)C2=O (stereo not drawn) [Example 114, 4-(4-chlorophenyl)-5-(3,8-dimethyl-[1,2,4]triazolo[4,3-b]pyridazin-6-yl)-3-methyl-1-(1-methyl-1H-pyrazol-5-yl)-4,5-dihydropyrrolo-[3,4-c]pyrazol-6(1H)-one] gave a GI50 (MV-4-11 cells) of 0.0204 µM, a GI50 (THP-1 cells) of 0.0304 µM and a GI50 (K-562 cells) of 0.187 µM.

With CCn1nc2c(c1C)C(c1ccc(Cl)cc1)N(c1cc(C)c3nnc(C)n3c1)C2=O (stereo not drawn) [Example 115, 4-(4-chlorophenyl)-5-(3,8-dimethyl-[1,2,4]triazolo[4,3-a]pyridin-6-yl)-2-ethyl-3-methyl-4,5-dihydropyrrolo-[3,4-c]pyrazol-6(2H)-one] the GI50 (MV-4-11 cells) was 0.0224 µM, the GI50 (THP-1 cells) was 0.0348 µM and the GI50 (K-562 cells) was 0.142 µM.

For CCn1nc(C)c2c1C(=O)N(c1cc(C)c3nnc(C)n3c1)C2c1ccc(Cl)cc1 (stereo not drawn) [Example 116, 4-(4-chlorophenyl)-5-(3,8-dimethyl-[1,2,4]triazolo[4,3-a]pyridin-6-yl)-1-ethyl-3-methyl-4,5-dihydropyrrolo-[3,4-c]pyrazol-6(1H)-one], the GI50 (MV-4-11 cells) was 0.0125 µM, the GI50 (THP-1 cells) was 0.0188 µM and the GI50 (K-562 cells) was 0.0812 µM.

With Cc1cc(N2C(=O)c3c(c(C4CC4)nn3-c3ccnn3C)C2c2ccc(Cl)cc2)cn2c(C)nnc12 (stereo not drawn) [Example 117, 4-(4-chlorophenyl)-3-cyclopropyl-5-(3,8-dimethyl-[1,2,4]triazolo[4,3-a]pyridin-6-yl)-1-(1-methyl-1H-pyrazol-5-yl)-4,5-dihydropyrrolo-[3,4-c]pyrazol-6(1H)-one] the GI50 (MV-4-11 cells) was 0.0186 µM, the GI50 (THP-1 cells) was 0.0318 µM and the GI50 (K-562 cells) was 0.15 µM.

In the case of Cc1nn(C2CC2)c2c1[C@@H](c1ccc(Cl)cc1)N(c1cc(C)c3nnc(C)n3c1)C2=O [Example 119, (R)-4-(4-chlorophenyl)-1-cyclopropyl-5-(3,8-dimethyl-[1,2,4]triazolo[4,3-a]pyridin-6-yl)-3-methyl-4,5-dihydropyrrolo-[3,4-c]pyrazol-6(1H)-one], the GI50 (MV-4-11 cells) is reported as 0.00615 µM, the GI50 (THP-1 cells) is reported as 0.00945 µM and the IC (TGI) (K-562 cells) is reported as >10 µM. It also gave a GI50 (K-562 cells) of 0.062 µM.

In the case of Cc1nn(-c2ccnn2C)c2c1[C@@H](c1ccc(Cl)cc1)N(c1cc(C)c(=O)n(C)c1)C2=O [Example 120, (R)-4-(4-chlorophenyl)-5-(1,5-dimethyl-6-oxo-1,6-dihydropyridin-3-yl)-3-methyl-1-(1-methyl-1H-pyrazol-5-yl)-4,5-dihydropyrrolo-[3,4-c]pyrazol-6(1H)-one], the GI50 (MV-4-11 cells) is reported as 0.0557 µM, the GI50 (THP-1 cells) is reported as 0.0792 µM and the IC (TGI) (K-562 cells) is reported as >10 µM. The GI50 (K-562 cells) was 0.402 µM.

Cc1nn(-c2ccnn2C)c2c1[C@H](c1ccc(Cl)cc1)N(c1cc(C)c(=O)n(C)c1)C2=O [Example 121, (S)-4-(4-chlorophenyl)-5-(1,5-dimethyl-6-oxo-1,6-dihydropyridin-3-yl)-3-methyl-1-(1-methyl-1H-pyrazol-5-yl)-4,5-dihydropyrrolo-[3,4-c]pyrazol-6(1H)-one] showed a GI50 (MV-4-11 cells) of 0.83 µM, a GI50 (THP-1 cells) of 2.11 µM and a GI50 (K-562 cells) of 9.71 µM.

Cc1nn(C2CC2)c2c1[C@@H](c1ccc(Cl)cc1)N(c1cc(C)c3nnc(C)n3n1)C2=O [Example 122, (R)-4-(4-chlorophenyl)-1-cyclopropyl-5-(3,8-dimethyl-[1,2,4]triazolo[4,3-b]-pyridazin-6-yl)-3-methyl-4,5-dihydropyrrolo[3,4-c]pyrazol-6(1H)-one] showed a GI50 (MV-4-11 cells) of 0.00341 µM, a GI50 (THP-1 cells) of 0.00432 µM and a GI50 (K-562 cells) of 0.0241 µM.

Compound Cc1nn(C2CC2)c2c1[C@H](c1ccc(Cl)cc1)N(c1cc(C)c3nnc(C)n3n1)C2=O [Example 123, (S)-4-(4-chlorophenyl)-1-cyclopropyl-5-(3,8-dimethyl-[1,2,4]triazolo[4,3-b]pyridazin-6-yl)-3-methyl-4,5-dihydropyrrolo-[3,4-c]pyrazol-6(1H)-one] has a GI50 (MV-4-11 cells) of 2.87 µM, a GI50 (THP-1 cells) of 5.88 µM and a GI50 (K-562 cells) of 9.4 µM.

In the case of Cc1nn(-c2ccnn2C)c2c1[C@H](c1ccc(Cl)cc1)N(c1cc(C)c3nnc(C)n3c1)C2=O [Example 124, (S)-4-(4-chlorophenyl)-5-(3,8-dimethyl-[1,2,4]triazolo[4,3-a]pyridin-6-yl)-3-methyl-1-(1-methyl-1H-pyrazol-5-yl)-4,5-dihydropyrrolo[3,4-c]pyrazol-6(1H)-one], the GI50 (MV-4-11 cells) is reported as 0.296 µM, the GI50 (THP-1 cells) is reported as 0.695 µM and the GI50 (K-562 cells) is reported as 2.52 µM.

Cc1nn(-c2ccnn2C)c2c1[C@@H](c1ccc(Cl)cc1)N(c1cc(C)c3nnc(C)n3c1)C2=O [Example 125, (R)-4-(4-chlorophenyl)-5-(3,8-dimethyl-[1,2,4]triazolo[4,3-a]pyridin-6-yl)-3-methyl-1-(1-methyl-1H-pyrazol-5-yl)-4,5-dihydropyrrolo[3,4-c]pyrazol-6(1H)-one] was tested, and the GI50 (MV-4-11 cells) was 0.0187 µM, the GI50 (THP-1 cells) was 0.0258 µM and the IC (TGI) (K-562 cells) was >10 µM. For the same compound, the GI50 (K-562 cells) was 0.101 µM.

CC(=O)Nc1cc(N2C(=O)c3c(c(C)nn3C3CC3)C2c2ccc(Cl)cc2)nn2c(C)nnc12 (stereo not drawn) [Example 126, N-(6-(4-(4-chlorophenyl)-1-cyclopropyl-3-methyl-6-oxopyrrolo[3,4-c]pyrazol-5-(1H,4H,6H)-yl)-3-methyl-[1,2,4]triazolo[4,3-b]pyridazin-8-yl)acetamide] showed a GI50 (MV-4-11 cells) of 0.404 µM, a GI50 (THP-1 cells) of 0.576 µM and a GI50 (K-562 cells) of 4.15 µM.

In the case of COc1ncccc1-n1nc(C)c2c1C(=O)N(c1cc(C)c(=O)n(C)c1)[C@H]2c1ccc(Cl)cc1 [Example 127, (S)-4-(4-chlorophenyl)-5-(1,5-dimethyl-6-oxo-1,6-dihydropyridin-3-yl)-1-(2-methoxypyridin-3-yl)-3-methyl-4,5-dihydropyrrolo-[3,4-c]pyrazol-6(1H)-one], the GI50 (MV-4-11 cells) is reported as 2.26 µM, the GI50 (THP-1 cells) is reported as 4.23 µM and the GI50 (K-562 cells) is reported as > 10 µM.

In the case of COc1ncccc1-n1nc(C)c2c1C(=O)N(c1cc(C)c(=O)n(C)c1)[C@@H]2c1ccc(Cl)cc1 [Example 128, (R)-4-(4-chlorophenyl)-5-(1,5-dimethyl-6-oxo-1,6-dihydropyridin-3-yl)-1-(2-methoxypyridin-3-yl)-3-methyl-4,5-dihydropyrrolo-[3,4-c]pyrazol-6(1H)-one], the GI50 (MV-4-11 cells) is reported as 0.0345 µM, the GI50 (THP-1 cells) is reported as 0.0646 µM and the IC (TGI) (K-562 cells) is reported as >10 µM. The GI50 (K-562 cells) was 0.183 µM.

COCc1nn(C2CC2)c2c1C(c1ccc(Cl)cc1)N(c1cc(C)c3nnc(C)n3c1)C2=O (stereo not drawn) [Example 130, 4-(4-chlorophenyl)-1-cyclopropyl-5-(3,8-dimethyl-[1,2,4]triazolo[4,3-a]pyridin-6-yl)-3-(methoxymethyl)-4,5-dihydropyrrolo[3,4-c]pyrazol-6(1H)-one] was tested, and the GI50 (MV-4-11 cells) was 0.0161 µM, the GI50 (THP-1 cells) was 0.0357 µM and the IC (TGI) (K-562 cells) was >10 µM. The GI50 (K-562 cells) was 0.195 µM.

In the case of Cc1cc(N2C(=O)c3c(c(CO)nn3C3CC3)C2c2ccc(Cl)cc2)cn2c(C)nnc12 (stereo not drawn) [Example 131, 4-(4-chlorophenyl)-1-cyclopropyl-5-(3,8-dimethyl-[1,2,4]triazolo[4,3-a]pyridin-6-yl)-3-(hydroxymethyl)-4,5-dihydropyrrolo-[3,4-c]pyrazol-6(1H)-one], the GI50 (MV-4-11 cells) is reported as 0.0245 µM, the GI50 (THP-1 cells) is reported as 0.0597 µM and the IC (TGI) (K-562 cells) is reported as >10 µM. The GI50 (K-562 cells) was 0.215 µM.

Work on Cc1cc(N2C(=O)c3c(c(CO)nn3C3CC3)C2c2ccc(Cl)cc2)cn(C)c1=O (stereo not drawn) [Example 133, 4-(4-chlorophenyl)-1-cyclopropyl-5-(1,5-dimethyl-6-oxo-1,6-dihydropyridin-3-yl)-3-(hydroxymethyl)-4,5-dihydropyrrolo-[3,4-c]pyrazol-6(1H)-one] yielded a GI50 (MV-4-11 cells) of 0.069 µM, a GI50 (THP-1 cells) of 0.166 µM and a GI50 (K-562 cells) of 0.451 µM.

Work on Cc1cc(N2C(=O)c3nn(C4COC4)c(C)c3C2c2ccc(Cl)cc2)cn(C)c1=O (stereo not drawn) [Example 134, 4-(4-chlorophenyl)-5-(1,5-dimethyl-6-oxo-1,6-dihydropyridin-3-yl)-3-methyl-2-(oxetan-3-yl)-4,5-dihydropyrrolo[3,4-c]pyrazol-6(2H)-one] yielded a GI50 (MV-4-11 cells) of 0.117 µM, a GI50 (THP-1 cells) of 0.161 µM and a GI50 (K-562 cells) of 0.574 µM.

With Cc1nn(C2COC2)c2c1C(c1ccc(Cl)cc1)N(c1cc(C)c(=O)n(C)c1)C2=O (stereo not drawn) [Example 135, 4-(4-chlorophenyl)-5-(1,5-dimethyl-6-oxo-1,6-dihydropyridin-3-yl)-3-methyl-1-(oxetan-3-yl)-4,5-dihydropyrrolo-[3,4-c]pyrazol-6(1H)-one] the GI50 (MV-4-11 cells) was 0.0799 µM, the GI50 (THP-1 cells) was 0.0861 µM and the GI50 (K-562 cells) was 0.616 µM.

Cc1cc(N2C(=O)c3nn(C4COC4)c(C)c3C2c2ccc(Cl)cc2)cn2c(C)nnc12 (stereo not drawn) [Example 136, 4-(4-chlorophenyl)-5-(3,8-dimethyl-[1,2,4]triazolo[4,3-a]pyridin-6-yl)-3-methyl-2-(oxetan-3-yl)-4,5-dihydropyrrolo-[3,4-c]pyrazol-6(2H)-one] showed a GI50 (MV-4-11 cells) of 0.0282 µM, a GI50 (THP-1 cells) of 0.0802 µM and a GI50 (K-562 cells) of 0.335 µM.

With Cc1nn(C2COC2)c2c1C(c1ccc(Cl)cc1)N(c1cc(C)c3nnc(C)n3c1)C2=O (stereo not drawn) [Example 137, 4-(4-chlorophenyl)-5-(3,8-dimethyl-[1,2,4]triazolo[4,3-a]pyridin-6-yl)-3-methyl-1-(oxetan-3-yl)-4,5-dihydropyrrolo[3,4-c]pyrazol-6(1H)-one] the GI50 (MV-4-11 cells) was 0.0231 µM, the GI50 (THP-1 cells) was 0.064 µM and the GI50 (K-562 cells) was 0.248 µM.

Cc1nn(C2CNC2)c2c1C(c1ccc(Cl)cc1)N(c1cc(C)c(=O)n(C)c1)C2=O (stereo not drawn) [Example 138, 1-(azetidin-3-yl)-4-(4-chlorophenyl)-5-(1,5-dimethyl-6-oxo-1,6-dihydropyridin-3-yl)-3-methyl-4,5-dihydropyrrolo[3,4-c]pyrazol-6(1H)-one] was tested, and the GI50 (MV-4-11 cells) was 0.251 µM, the GI50 (THP-1 cells) was 0.904 µM and the GI50 (K-562 cells) was 2.06 µM.

In the case of Cc1cc(N2C(=O)c3nn(C4CN(C)C4)c(C)c3C2c2ccc(Cl)cc2)cn(C)c1=O (stereo not drawn) [Example 139, 4-(4-chlorophenyl)-5-(1,5-dimethyl-6-oxo-1,6-dihydropyridin-3-yl)-3-methyl-2-(1-methylazetidin-3-yl)-4,5-dihydropyrrolo-[3,4-c]pyrazol-6(2H)-one], the GI50 (MV-4-11 cells) is reported as 0.0729 µM, the GI50 (THP-1 cells) is reported as 0.19 µM and the GI50 (K-562 cells) is reported as 0.591 µM.

Compound Cc1nn(C2CN(C)C2)c2c1C(c1ccc(Cl)cc1)N(c1cc(C)c(=O)n(C)c1)C2=O (stereo not drawn) [Example 140, 4-(4-chlorophenyl)-5-(1,5-dimethyl-6-oxo-1,6-dihydropyridin-3-yl)-3-methyl-1-(1-methylazetidin-3-yl)-4,5-dihydropyrrolo-[3,4-c]pyrazol-6(1H)-one] has a GI50 (MV-4-11 cells) of 0.106 µM, a GI50 (THP-1 cells) of 0.392 µM and a GI50 (K-562 cells) of 1.37 µM.

Source: patent US20160095843A1, “PYRAZOLOPYRROLIDINE DERIVATIVES AND THEIR USE IN THE TREATMENT OF DISEASE” (NOVARTIS AG, priority 2013, published 2016)
